Source: ChEMBL document CHEMBL4680360, “Novel Oxazine Monoacylglycerol Lipase (MAGL) Inhibitors” (ACS Med Chem Lett, 2021)

Target: T1, Monoglyceride lipase (Homo sapiens, UniProt Q99685)
T1 sequence (Q99685 whole entry): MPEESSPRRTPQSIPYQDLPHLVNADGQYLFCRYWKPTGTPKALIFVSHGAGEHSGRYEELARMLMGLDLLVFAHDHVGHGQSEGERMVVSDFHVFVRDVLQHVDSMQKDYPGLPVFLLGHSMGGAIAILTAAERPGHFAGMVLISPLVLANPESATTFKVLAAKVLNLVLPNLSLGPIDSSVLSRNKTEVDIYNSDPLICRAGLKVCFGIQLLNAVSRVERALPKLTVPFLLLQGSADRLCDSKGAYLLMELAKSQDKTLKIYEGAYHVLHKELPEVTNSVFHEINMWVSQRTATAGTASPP
Experiment: Inhibition of MAGL (unknown origin) using 2-AG as substrate incubated for 15 mins followed by substrate addition and measured after 30 mins by mass spectrophotometry

`Cc1ccc([C@@H](c2ccccc2)C2CCN(C(=O)N3CC[C@@H]4OCC(=O)N[C@@H]4C3)CC2)cc1` gave an IC50 of 0.1 nM.
